Test results as given in patent US20230365571A1, “COMPOUNDS AND COMPOSITIONS AS Sppl2a INHIBITORS” (Novartis AG, priority 2020, published 2023).

Experiments:
Type in all cases: cell-based
human SPPL2a [1] = molecular target: T1, human SPPL2a (Homo sapiens, UniProt Q8TCT8); test: Sppl2a TL (translocation) imaging assay in U-2 OS cells; set-up: expressed in transfected cells; conditions: U-2 OS cells expressing human SPPL2a and EGFP-TNFα(aa1-76) NTF substrate; 24 h
T1 sequence (Q8TCT8 26-520): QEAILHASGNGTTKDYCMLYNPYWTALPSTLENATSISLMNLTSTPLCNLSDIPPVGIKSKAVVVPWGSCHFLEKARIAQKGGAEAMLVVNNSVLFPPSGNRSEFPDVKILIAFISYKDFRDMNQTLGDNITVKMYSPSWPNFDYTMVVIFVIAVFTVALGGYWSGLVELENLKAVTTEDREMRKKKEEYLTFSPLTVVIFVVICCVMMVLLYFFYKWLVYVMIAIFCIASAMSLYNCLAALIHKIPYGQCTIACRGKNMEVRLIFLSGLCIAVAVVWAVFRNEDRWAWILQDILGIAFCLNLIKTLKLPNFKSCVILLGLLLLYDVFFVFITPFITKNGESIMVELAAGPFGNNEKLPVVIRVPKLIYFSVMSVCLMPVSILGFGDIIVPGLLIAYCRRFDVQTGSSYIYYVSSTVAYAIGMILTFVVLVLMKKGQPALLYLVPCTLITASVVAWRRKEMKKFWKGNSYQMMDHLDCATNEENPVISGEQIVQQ
Summary of the method: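 U-2 OS cells stably expressing human SPPL2a plus doxycycline-induced EGFP-TNFα(aa1-76) NTF, treated 24 h at 37 °C with inhibitor (100 μM–1 nM, 11 points, 0.9% DMSO, 5 μg/mL doxycycline). Imaging of nuclear-minus-cytoplasmic EGFP intensity; % inhibition versus 0.5 μM LY-411,575 and DMSO, IC50 by nonlinear regression; CC50 from cell count.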

human SPPL2a [2] = molecular target: T1, human SPPL2a; test: Sppl2a RGA (reporter gene assay) in HEK293 cells; set-up: expressed in transfected cells; host or cells: HEK293 (transient); conditions: NT-TNF-VP16-Gal4 substrate, Gal4-luciferase reporter, 24 h
Summary of the method: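 Cleavage of a membrane-bound TNF N-terminal–VP16-Gal4 substrate drives Gal4-luciferase expression in transiently transfected HEK293 cells also expressing human SPPL2a. Compounds incubated 24 h, 37 °C, 5% CO2; luminescence read, normalized and plotted against concentration for IC50.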

Sppl2a CD74 = molecular target: T2, Sppl2a CD74 (Mus musculus, UniProt Q9JJF9); test: CD74/p8 mouse whole blood assay, flow cytometry format; conditions: Balb/c mouse whole blood, 5 h, CD74 signal on gated live B cells
T2 construct: Mouse whole blood Balb/c mice (sodium citrate) was ordered by Bioreclamation LLC; tissue Bioreclamation LLC
T2 sequence (Q9JJF9 26-523): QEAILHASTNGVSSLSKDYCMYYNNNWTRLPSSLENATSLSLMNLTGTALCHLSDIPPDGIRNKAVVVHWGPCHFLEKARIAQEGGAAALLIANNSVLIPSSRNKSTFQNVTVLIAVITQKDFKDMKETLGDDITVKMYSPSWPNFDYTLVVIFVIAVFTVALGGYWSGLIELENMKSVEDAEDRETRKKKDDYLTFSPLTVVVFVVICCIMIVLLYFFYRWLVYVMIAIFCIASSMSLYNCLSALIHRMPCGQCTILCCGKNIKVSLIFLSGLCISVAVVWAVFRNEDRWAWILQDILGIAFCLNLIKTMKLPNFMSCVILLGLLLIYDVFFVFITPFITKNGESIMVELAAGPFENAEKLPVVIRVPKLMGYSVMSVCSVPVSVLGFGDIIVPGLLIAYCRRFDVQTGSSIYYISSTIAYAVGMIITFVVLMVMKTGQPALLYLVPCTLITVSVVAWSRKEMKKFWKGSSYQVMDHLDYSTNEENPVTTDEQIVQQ
Description: CD74/p8 Mouse Whole Blood Assay: Flow Cytometry Format
Mouse whole blood Balb/c mice (sodium citrate) was ordered by Bioreclamation LLC; USA. The blood was used the next day upon receipt (stored at 4° C.). 100 μL blood were transferred in 96 well format plate, where compounds, an 11 point dilutions down from 30 μM, to be tested were previously deposited. The plate was incubated for 5 h in the incubator at 37° C., 5% CO2 under continuous motion. After the incubation the blood was diluted with RBC Lysis Buffer (Amined; Cat. Nr 3-13F00-H or BD; Cat. Nr 555899). The solution was mixed by pipetting and incubated 10 min in the 37° C. incubator. The white blood cells were sedimented for 3 min at 2000 rpm. After removing the supernatant the cell pellet was resuspended and washed twice in RCB Buffer and kept≈ 5 min at room temperature, followed by a centrifugation for 2 min at 2000 rpm. The cell pellet was then resuspend in D-PBS and centrifuged twice. Finally, the cells were taken up in of D-PBS/0.5% inactivated fetal bovine serum/2 mM EDTA. The cell suspension was treated with Live/Dead fixable stain (Life Technologies, >470 nm version), B cells were identified by surface staining with an anti-B220 antibody coupled to APC fluorofor. After staining, the cells were extensively washed with PBS. The cells were permeabilized and fixed in FACS lysing buffer; (BD; #349202, dil 1:10 in water) and labelled with an anti CD74, FITC labelled antibody, washed once more with diluted FACS lysing buffer and spin down. The cell pellet was washed with D-PBS/0.5% inactivated fetal bovine serum/2 mM EDTA and PBS prior to the analysis in a flow cytometer. The compound concentrations were plotted against the intensity (medium fluorescence intensity) of the CD74 signal on the gated life B cell and IC50 were determined by fitting data for a 11 concentrations dose response.

Row | SMILES | IC50 (human SPPL2a [1]) | IC50 (human SPPL2a [2]) | IC50 (Sppl2a CD74)
1 | C[C@H](CC(=O)Nc1cc(NC(=O)c2ccccc2F)nn1C)C(=O)N[C@@H]1C(=O)N2CCCN2Cc2ccccc21 [Example 69, (R)-N^4-(3-(2-Fluorobenzamido)-1-methyl-1H-pyrazol-5-yl)-2-methyl-N^1-((S)-11-oxo-2,3,10,11-tetrahydro-1H,5H-benzo[d]pyrazolo [1,2-a][1,2]diazepin-10-yl)succinamide] | 3 nM | 9 nM | 1240 nM
2 | CC[C@H](CNC(=O)c1onc(C)c1C)C(=O)N[C@@H]1C(=O)N2CCCN2Cc2ccccc21 [Example 25, 3,4-Dimethyl-N-((R)-2-(((S)-11-oxo-2,3,10,11-tetrahydro-1H,5H-benzo[d]pyrazolo [1,2-a][1,2]diazepin-10-yl)carbamoyl)butyl) isoxazole-5-carboxamide] | 24 nM | 9 nM | 420 nM
3 | C[C@H](CC(=O)Nc1cc(NC(=O)C(C)(C)C)nn1C)C(=O)N[C@@H]1C(=O)N2CCCN2Cc2ccccc21 [Example 89, (R)-2-Methyl-N^4-(1-methyl-3-pivalamido-1H-pyrazol-5-yl)-N^1-((S)-11-oxo-2,3,10,11-tetrahydro-1H,5H-benzo[d]pyrazolo [1,2-a][1,2]diazepin-10-yl)succinamide] | 11 nM | 60 nM | 649 nM
4 | C[C@H](CC(=O)Nc1cc(C(=O)NCC(F)F)nn1C)C(=O)N[C@@H]1C(=O)N2CCCN2Cc2ccccc21 [Example 65, (R)-N^4-(3-((2,2-difluoroethyl)car-bamoyl)-1-methyl-1H-pyrazol-5-yl)-2-methyl-N^1-((S)-11-oxo-2,3,10,11-tetrahydro-1H,5H-benzo[d]pyrazolo [1,2-a][1,2]diazepin-10-yl)succinamide] | 1 nM | 14 nM | 519 nM
5 | CNC(=O)c1nc(C)c(C(=O)NC[C@H](C(=O)N[C@@H]2C(=O)N3CCCN3Cc3ccccc32)C2CC2)s1 [Example 9, N^5-((R)-2-Cyclopropyl-3-oxo-3-(((S)-11-oxo-2,3,10,11-tetrahydro-1H,5H-benzo[d]pyrazolo [1,2-a][1,2]diazepin-10-yl)amino)propyl)-N^2,4-dimethylthiazole-2,5-dicarboxamide] | 3 nM | 4 nM | 157 nM
6 | CCNC(=O)c1nc(C)c(C(=O)NC[C@H](C(=O)N[C@@H]2C(=O)N3CCCN3Cc3ccccc32)C2CC2)s1 [Example 12, N^5-((R)-2-Cyclopropyl-3-oxo-3-(((S)-11-oxo-2,3,10,11-tetrahydro-1H,5H-benzo[d]pyrazolo [1,2-a][1,2]diazepin-10-yl)amino)propyl)-N^2-ethyl-4-methylthiazole-2,5-dicarboxamide] | 5 nM | 4 nM | 280 nM
7 | Cc1nc(C2CCOCC2)sc1C(=O)NC[C@H](C(=O)N[C@@H]1C(=O)N2CCCN2Cc2ccccc21)C(F)(F)F [Example 50, 4-Methyl-2-(tetrahydro-2H-pyran-4-yl)-N-((R)-3,3,3-trifluoro-2-(((S)-11-oxo-2,3,10,11-tetrahydro-1H,5H-benzo[d]pyrazolo [1,2-a][1,2]diazepin-10-yl)carbamoyl)pro-pyl)thiazole-5-carboxamide] | 97 nM | 90 nM | 1390 nM
8 | CNC(=O)c1nc(C)c(C(=O)NC[C@H](C(=O)N[C@@H]2C(=O)N3CCCN3Cc3ccccc32)C(F)(F)F)s1 [Example 11, N^2,4-Dimethyl-N^5-((R)-3,3,3-trifluoro-2-(((S)-11-oxo-2,3,10,11-tetrahydro-1H,5H-benzo[d]pyrazolo [1,2-a][1,2]diazepin-10-yl)carbamoyl)pro-pyl)thiazole-2,5-dicarboxamide] | 4 nM | 3 nM | 95 nM
9 | CC[C@H](CNC(=O)c1sc(C(=O)NC(C)C)nc1C)C(=O)N[C@@H]1C(=O)N2CCCN2Cc2ccccc21 [Example 19, N^2-Isopropyl-4-methyl-N^5-((R)-2-(((S)-11-oxo-2,3,10,11-tetrahydro-1H,5H-benzo[d]pyrazolo [1,2-a][1,2]diazepin-10-yl)carbamoyl)butyl) thiazole-2,5-dicarboxamide] | 12 nM | 6 nM | 819 nM
10 | CC[C@H](CNC(=O)c1sc(C2=CCOCC2)nc1Cl)C(=O)N[C@@H]1C(=O)N2CCCN2Cc2ccccc21 [Example 46, 4-Chloro-2-(3,6-dihydro-2H-pyran-4-yl)-N-((R)-2-(((S)-11-oxo-2,3,10,11-tetrahydro-1H,5H-benzo[d]pyrazolo [1,2-a][1,2]diazepin-10-yl)carbamoyl)butyl) thiazole-5-carboxamide] | 79 nM | 54 nM | 2680 nM
11 | CC(C)NC(=O)c1nc(Cl)c(C(=O)NC[C@@H](C)C(=O)N[C@@H]2C(=O)N3CCCN3Cc3ccccc32)s1 [Example 22, 4-Chloro-N^2-isopropyl-N^5-((R)-2-methyl-3-oxo-3-(((S)-11-oxo-2,3,10,11-tetrahydro-1H,5H-benzo[d]pyrazolo [1,2-a][1,2]diazepin-10-yl)amino)propyl) thiazole-2,5-dicarboxamide] | 14 nM | 12 nM | 3000 nM
12 | CC(C)C(=O)Nc1cc(NC(=O)C[C@H](C(=O)N[C@@H]2C(=O)N3CC4(CC4)CN3C(=O)c3ccccc32)C2CCC2)n(C)n1 [Example 82, (S)-2-Cyclobutyl-N^1-((S)-5,11-dioxo-10,11-dihydro-1H,3H,5H-spiro[benzo[d]pyrazolo[1,2-a][1,2]diazepine-2,1′-cyclopropan]-10-yl)-N^4-(3-isobutyramido-1-methyl-1H-pyrazol-5-yl)succinamide] | 9 nM | 36 nM | 1870 nM
13 | CC(C)NC(=O)c1nc(Cl)c(NC(=O)C[C@@H](C)C(=O)N[C@@H]2C(=O)N3CCCN3Cc3ccccc32)s1 [Example 64, (R)-N^4-(4-Chloro-2-(isopropylcarba-moyl)thiazol-5-yl)-2-methyl-N^1-((S)-11-oxo-2,3,10,11-tetrahydro-1H,5H-benzo[d]pyrazolo [1,2-a][1,2]diazepin-10-yl)succinamide] | 1 nM | 3 nM | 230 nM
14 | Cc1cc(-c2cc(NC(=O)C[C@@H](C)C(=O)N[C@@H]3C(=O)N4CCCN4Cc4ccccc43)n(C)n2)no1 [Example 80, (R)-2-Methyl-N^4-(1-methyl-3-(5-methylisoxazol-3-yl)-1H-pyrazol-5-yl)-N^1-((S)-11-oxo-2,3,10,11-tetrahydro-1H,5H-benzo[d]pyrazolo [1,2-a][1,2]diazepin-10-yl)succinamide] | 7 nM | 8 nM | 910 nM
